Laboratory results reported in ChEMBL document CHEMBL2311454, “Discovery and evaluation of novel inhibitors of mycobacterium protein tyrosine phosphatase B from the 6-Hydroxy-benzofuran-5-carboxylic acid scaffold” (J Med Chem, 2013).

Columns and labels:
Laforin = target: T1, Laforin (Homo sapiens, UniProt O95278); experiment: Inhibition of Laforin (unknown origin) expressed in Escherichia coli using pNPP substrate after 5 mins by spectrophotometric analysis
T1 sequence (O95278 whole entry): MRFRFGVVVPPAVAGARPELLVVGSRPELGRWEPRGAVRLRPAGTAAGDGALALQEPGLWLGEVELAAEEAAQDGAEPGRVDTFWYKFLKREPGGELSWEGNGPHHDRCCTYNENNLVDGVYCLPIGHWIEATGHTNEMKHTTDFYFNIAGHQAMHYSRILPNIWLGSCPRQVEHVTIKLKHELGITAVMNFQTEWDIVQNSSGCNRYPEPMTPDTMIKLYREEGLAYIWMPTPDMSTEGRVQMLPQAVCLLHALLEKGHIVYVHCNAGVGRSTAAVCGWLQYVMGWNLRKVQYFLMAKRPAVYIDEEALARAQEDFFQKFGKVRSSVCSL

[1] = target: Receptor-type tyrosine-protein phosphatase alpha (Homo sapiens, UniProt P18433); experiment: Inhibition of PTPalpha (unknown origin) expressed in Escherichia coli using pNPP substrate after 5 mins by spectrophotometric analysis
Chain of Receptor-type tyrosine-protein phosphatase alpha (P18433 whole entry): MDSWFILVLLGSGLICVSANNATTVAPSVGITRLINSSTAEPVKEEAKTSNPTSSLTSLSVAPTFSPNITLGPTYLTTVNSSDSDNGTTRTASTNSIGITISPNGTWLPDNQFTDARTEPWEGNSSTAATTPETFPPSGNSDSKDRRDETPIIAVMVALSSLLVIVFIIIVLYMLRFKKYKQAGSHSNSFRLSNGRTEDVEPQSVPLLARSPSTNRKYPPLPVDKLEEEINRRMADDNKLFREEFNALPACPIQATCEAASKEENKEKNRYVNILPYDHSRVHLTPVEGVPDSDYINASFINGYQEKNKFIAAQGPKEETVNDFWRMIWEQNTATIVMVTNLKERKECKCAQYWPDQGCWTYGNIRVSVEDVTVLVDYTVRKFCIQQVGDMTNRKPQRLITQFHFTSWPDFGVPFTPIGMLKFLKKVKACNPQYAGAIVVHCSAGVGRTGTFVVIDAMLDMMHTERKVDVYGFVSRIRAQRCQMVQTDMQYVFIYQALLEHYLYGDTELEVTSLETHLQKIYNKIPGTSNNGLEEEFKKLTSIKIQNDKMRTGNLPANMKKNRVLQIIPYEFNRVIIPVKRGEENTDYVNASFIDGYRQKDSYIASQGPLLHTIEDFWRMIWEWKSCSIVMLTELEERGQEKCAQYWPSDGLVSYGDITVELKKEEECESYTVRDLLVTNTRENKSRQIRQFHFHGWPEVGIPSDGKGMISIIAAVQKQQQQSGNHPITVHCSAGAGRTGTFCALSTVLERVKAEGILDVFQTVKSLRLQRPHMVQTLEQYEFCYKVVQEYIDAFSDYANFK

[2] = target: T2, Tyrosine-protein phosphatase non-receptor type 2 (Homo sapiens, UniProt P17706); experiment: Inhibition of TCPTP (unknown origin) expressed in Escherichia coli using pNPP substrate after 5 mins by spectrophotometric analysis
T2 sequence (P17706 whole entry): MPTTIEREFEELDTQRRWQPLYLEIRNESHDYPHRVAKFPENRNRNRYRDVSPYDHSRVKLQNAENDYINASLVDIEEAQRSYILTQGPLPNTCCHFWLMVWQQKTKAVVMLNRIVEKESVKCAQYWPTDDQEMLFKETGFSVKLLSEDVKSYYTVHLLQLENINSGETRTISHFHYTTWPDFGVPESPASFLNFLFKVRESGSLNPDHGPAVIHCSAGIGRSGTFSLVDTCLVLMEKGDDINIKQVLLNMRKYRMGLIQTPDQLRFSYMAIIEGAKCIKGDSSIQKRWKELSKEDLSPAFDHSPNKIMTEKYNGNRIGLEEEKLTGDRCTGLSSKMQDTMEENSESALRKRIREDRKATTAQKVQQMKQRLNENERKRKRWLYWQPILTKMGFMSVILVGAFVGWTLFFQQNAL

[3] = target: Receptor-type tyrosine-protein phosphatase F (Homo sapiens, UniProt P10586); experiment: Inhibition of LAR (unknown origin) expressed in Escherichia coli using pNPP substrate after 5 mins by spectrophotometric analysis
Chain of Receptor-type tyrosine-protein phosphatase F (P10586 whole entry): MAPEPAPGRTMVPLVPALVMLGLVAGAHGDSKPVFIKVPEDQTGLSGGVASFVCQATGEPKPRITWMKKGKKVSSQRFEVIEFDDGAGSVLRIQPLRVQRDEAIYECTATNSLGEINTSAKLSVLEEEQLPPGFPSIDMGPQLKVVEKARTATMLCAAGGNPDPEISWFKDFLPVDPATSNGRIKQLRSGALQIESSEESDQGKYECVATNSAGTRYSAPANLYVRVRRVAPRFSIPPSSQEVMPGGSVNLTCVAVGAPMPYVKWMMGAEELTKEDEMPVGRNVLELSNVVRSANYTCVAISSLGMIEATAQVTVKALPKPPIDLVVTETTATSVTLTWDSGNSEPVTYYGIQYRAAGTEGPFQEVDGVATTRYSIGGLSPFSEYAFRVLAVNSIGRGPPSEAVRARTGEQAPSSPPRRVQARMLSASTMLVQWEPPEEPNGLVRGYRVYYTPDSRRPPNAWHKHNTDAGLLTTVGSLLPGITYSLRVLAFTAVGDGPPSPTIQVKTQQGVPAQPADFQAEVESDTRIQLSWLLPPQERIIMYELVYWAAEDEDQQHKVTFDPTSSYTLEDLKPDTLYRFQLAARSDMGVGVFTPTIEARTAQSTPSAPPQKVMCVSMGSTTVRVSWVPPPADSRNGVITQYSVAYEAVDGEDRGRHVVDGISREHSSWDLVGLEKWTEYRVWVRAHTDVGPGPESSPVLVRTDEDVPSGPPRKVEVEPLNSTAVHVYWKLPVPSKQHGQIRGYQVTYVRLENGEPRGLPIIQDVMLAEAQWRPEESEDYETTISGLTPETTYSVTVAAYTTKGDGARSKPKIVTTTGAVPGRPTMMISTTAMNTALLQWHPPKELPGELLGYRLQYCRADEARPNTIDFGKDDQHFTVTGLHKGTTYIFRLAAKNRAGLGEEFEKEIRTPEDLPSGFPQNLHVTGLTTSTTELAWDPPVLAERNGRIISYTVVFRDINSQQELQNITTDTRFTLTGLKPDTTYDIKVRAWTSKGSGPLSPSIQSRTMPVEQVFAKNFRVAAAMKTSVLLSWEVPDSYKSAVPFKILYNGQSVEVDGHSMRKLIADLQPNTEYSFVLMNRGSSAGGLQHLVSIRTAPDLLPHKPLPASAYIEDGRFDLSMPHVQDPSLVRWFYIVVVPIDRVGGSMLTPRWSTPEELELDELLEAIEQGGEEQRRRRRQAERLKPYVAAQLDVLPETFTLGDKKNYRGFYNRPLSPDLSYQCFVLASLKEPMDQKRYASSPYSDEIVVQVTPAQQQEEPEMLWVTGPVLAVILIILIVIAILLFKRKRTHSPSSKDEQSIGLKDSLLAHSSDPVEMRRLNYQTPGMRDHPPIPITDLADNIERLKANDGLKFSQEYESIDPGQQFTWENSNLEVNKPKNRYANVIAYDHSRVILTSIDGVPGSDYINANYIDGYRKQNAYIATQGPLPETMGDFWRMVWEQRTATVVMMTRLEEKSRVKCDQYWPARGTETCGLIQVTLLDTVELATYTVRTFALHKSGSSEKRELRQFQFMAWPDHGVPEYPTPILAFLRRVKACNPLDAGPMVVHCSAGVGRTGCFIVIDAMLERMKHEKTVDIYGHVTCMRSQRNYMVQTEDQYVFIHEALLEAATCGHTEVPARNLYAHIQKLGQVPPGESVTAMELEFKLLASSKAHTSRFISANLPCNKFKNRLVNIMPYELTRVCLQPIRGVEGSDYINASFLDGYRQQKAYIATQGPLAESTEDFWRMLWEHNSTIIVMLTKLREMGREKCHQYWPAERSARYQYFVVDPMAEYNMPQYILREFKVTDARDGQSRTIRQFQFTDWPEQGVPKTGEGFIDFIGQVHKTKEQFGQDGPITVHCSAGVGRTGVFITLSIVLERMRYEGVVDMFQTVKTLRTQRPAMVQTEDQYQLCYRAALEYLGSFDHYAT

IC50 (Laforin): > 30 µM | IC50 [1]: > 10 µM | IC50 [2]: 6.1 µM | IC50 [3]: > 10 µM
SMILES: O=C(O)c1cc2c(C#Cc3cc(F)cc(F)c3)c(-c3ccccc3)oc2cc1O
